In publication PMC9786103, “Potent and Selective Inhibition of CYP1A2 Enzyme by Obtusifolin and Its Chemopreventive Effects” (Pharmaceutics, 2022):

Tests used:
CYP2C9 = molecular target: T1, CYP2C9 (Homo sapiens, UniProt P11712); assay: Tolbutamide 4-hydroxylation in human liver microsomes; format: biochemical; details: HLMs
T1 construct: Mixtures of pooled HLM, P450 substrates, and obtusifolin; tissue XenoTech XTreme 200; host or cells: pooled human liver microsomes
Procedure: (§1) The following P450 isoform-specific substrates were used: coumarin (CYP2A6); bupropion (CYP2B6); amodiaquine (CYP2C8); tolbutamide (CYP2C9); omeprazole (CYP2C19); dextromethorphan (CYP2D6); chlorzoxazone (CYP2E1); and midazolam (CYP3A). […] NGS was introduced to start the reaction, which was followed by an additional incubation (15 min). Following reaction termination, aliquots of the supernatants were analyzed with LC-MS/MS.
(§2) Reverse phase column (Kinetex XB-C18, 100 × 2.10 mm; Phenomenex, Torrance, CA, USA) and triple-quadrupole mass spectrometer (LCMS 8060, Shimadzu, Kyoto, Japan) with an ultra high-performance LC system (Nexera X2, Shimadzu) analyze all the metabolites. […] For each metabolite, quantitation was carried out in selected reaction monitoring (SRM) mode using the following precursor-to-product ion transition: m/z 152 > 110 for acetaminophen (CYP1A2), m/z 214 > 186 for resorufin (CYP1A1 and CYP1A2), m/z 163 > 107 for 7-hydroxycoumarin (CYP2A6), m/z 256 > 238 for 6-hydroxybupropion (CYP2B6), m/z 328 > 283 for N-desethylamodiaquine (CYP2C8), m/z 287 > 89 for 5-hydroxytolbutamide (CYP2C9), m/z 362 > 214 for 4-hydroxyomeprazole (CYP2C9), m/z 258 > 157 for dextrorphan (CYP2D6), m/z 184 > 120 for 6-hydroxychlorzoxazone (CYP2E1), m/z 342 > 203 for 1′-hydroxymidazolam (CYP3A), and m/z 295 > 100 for trimipramine (IS) [23, 24].

CYP2D6 = molecular target: T2, CYP2D6 (Homo sapiens, UniProt P10635); assay: Dextromethorphan O-demethylation in human liver microsomes; format: biochemical; details: HLMs
T2 construct: Mixtures of pooled HLM, P450 substrates, and obtusifolin; tissue XenoTech XTreme 200; host or cells: pooled human liver microsomes
T2 sequence (P10635 whole entry): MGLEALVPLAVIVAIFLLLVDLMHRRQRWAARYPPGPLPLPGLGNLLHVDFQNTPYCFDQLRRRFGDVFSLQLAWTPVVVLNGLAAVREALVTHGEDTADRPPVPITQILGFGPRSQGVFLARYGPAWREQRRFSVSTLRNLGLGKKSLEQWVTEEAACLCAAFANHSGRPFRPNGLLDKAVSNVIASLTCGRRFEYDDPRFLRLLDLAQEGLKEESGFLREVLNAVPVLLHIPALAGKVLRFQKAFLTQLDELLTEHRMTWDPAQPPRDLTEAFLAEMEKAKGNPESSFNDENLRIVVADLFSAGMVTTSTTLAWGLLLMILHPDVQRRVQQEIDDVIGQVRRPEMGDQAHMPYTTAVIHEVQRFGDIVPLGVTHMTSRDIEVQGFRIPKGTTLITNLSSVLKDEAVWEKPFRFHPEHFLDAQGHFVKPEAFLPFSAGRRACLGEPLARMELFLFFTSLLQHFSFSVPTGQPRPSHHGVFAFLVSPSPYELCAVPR
Procedure: as §1, §2

T1 sequence (P11712 whole entry): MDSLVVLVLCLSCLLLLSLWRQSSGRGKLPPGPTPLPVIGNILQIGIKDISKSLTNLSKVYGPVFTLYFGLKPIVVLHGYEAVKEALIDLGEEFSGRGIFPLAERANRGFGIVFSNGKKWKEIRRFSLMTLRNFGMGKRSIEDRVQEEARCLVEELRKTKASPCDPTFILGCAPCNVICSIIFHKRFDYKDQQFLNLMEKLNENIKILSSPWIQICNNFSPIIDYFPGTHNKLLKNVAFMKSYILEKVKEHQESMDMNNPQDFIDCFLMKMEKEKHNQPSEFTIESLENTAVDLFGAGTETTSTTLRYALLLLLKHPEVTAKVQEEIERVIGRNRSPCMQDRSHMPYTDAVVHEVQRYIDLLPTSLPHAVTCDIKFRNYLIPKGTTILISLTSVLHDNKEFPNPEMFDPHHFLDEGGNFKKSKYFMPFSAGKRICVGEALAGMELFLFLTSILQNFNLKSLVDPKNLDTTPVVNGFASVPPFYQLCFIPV

COc1c(O)c(C)cc2c1C(=O)c1c(O)cccc1C2=O [Obtusifolin, obtusifolin]
IC50 (CYP2C9): 28.6 µM
IC50 (CYP2D6): > 50 µM
